Experimental data from the supplement of paper PMC10307832.

Legend:
Assay in all cases: relative viability (nuclei count vs DMSO), 5 days (fraction); higher = more cells survive
Neratinib + Navitoclax = compound: CCOc1cc2ncc(C#N)c(Nc3ccc(OCc4ccccn4)c(Cl)c3)c2cc1NC(=O)/C=C/CN(C)C [Neratinib] + CC1(C)CCC(c2ccc(Cl)cc2)=C(CN2CCN(c3ccc(C(=O)NS(=O)(=O)c4ccc(N[C@H](CCN5CCOCC5)CSc5ccccc5)c(S(=O)(=O)C(F)(F)F)c4)cc3)CC2)C1 [Navitoclax] (partner 0.5 µM)
How it was run: (§1)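 Relative viability equals treated-well nuclei counts divided by vehicle-well nuclei counts. Counts came from 4× images of lung cancer cell lines grown in 1536-well plates for 5 days after pin-tool dosing on the day after seeding. Dosing used one drug alone or a fixed anchor-drug dose plus five library-drug doses (not always all listed) in √10 steps, and values are medians of duplicate plates.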

Neratinib + Alpelisib = compound: CCOc1cc2ncc(C#N)c(Nc3ccc(OCc4ccccn4)c(Cl)c3)c2cc1NC(=O)/C=C/CN(C)C [Neratinib] + Cc1nc(NC(=O)N2CCC[C@H]2C(N)=O)sc1-c1ccnc(C(C)(C)C(F)(F)F)c1 [Alpelisib] (partner 2 µM)
How it was run: as §1

Neratinib + Vorinostat = compound: CCOc1cc2ncc(C#N)c(Nc3ccc(OCc4ccccn4)c(Cl)c3)c2cc1NC(=O)/C=C/CN(C)C [Neratinib] + O=C(CCCCCCC(=O)Nc1ccccc1)NO [Vorinostat] (partner 1 µM)
How it was run: as §1

Neratinib + Linsitinib = compound: CCOc1cc2ncc(C#N)c(Nc3ccc(OCc4ccccn4)c(Cl)c3)c2cc1NC(=O)/C=C/CN(C)C [Neratinib] + C[C@]1(O)C[C@@H](c2nc(-c3ccc4ccc(-c5ccccc5)nc4c3)c3c(N)nccn32)C1 [Linsitinib] (partner 1 µM)
How it was run: as §1

Row | Cell Line | relative viability (Neratinib + Navitoclax; first compound 0.01 µM) | relative viability (Neratinib + Navitoclax; first compound 0.03162 µM) | relative viability (Neratinib + Navitoclax; first compound 0.1 µM) | relative viability (Neratinib + Navitoclax; first compound 0.3162 µM) | relative viability (Neratinib + Navitoclax; first compound 1 µM) | relative viability (Neratinib + Alpelisib; first compound 0.01 µM) | relative viability (Neratinib + Alpelisib; first compound 0.03162 µM) | relative viability (Neratinib + Alpelisib; first compound 0.1 µM) | relative viability (Neratinib + Alpelisib; first compound 0.3162 µM) | relative viability (Neratinib + Alpelisib; first compound 1 µM) | relative viability (Neratinib + Vorinostat; first compound 0.01 µM) | relative viability (Neratinib + Vorinostat; first compound 0.03162 µM) | relative viability (Neratinib + Vorinostat; first compound 0.1 µM) | relative viability (Neratinib + Vorinostat; first compound 0.3162 µM) | relative viability (Neratinib + Vorinostat; first compound 1 µM) | relative viability (Neratinib + Linsitinib; first compound 0.01 µM) | relative viability (Neratinib + Linsitinib; first compound 0.03162 µM) | relative viability (Neratinib + Linsitinib; first compound 0.1 µM) | relative viability (Neratinib + Linsitinib; first compound 0.3162 µM) | relative viability (Neratinib + Linsitinib; first compound 1 µM)
1 | NCI-H2170 | 0.391 | 0.377 | 0.274 | 0.196 | 0.184 | 0.619 | 0.383 | 0.314 | 0.21 | 0.265 | 0.862 | 0.647 | 0.407 | 0.205 | 0.239 |  |  |  |  | 
2 | NCI-H522 |  |  |  |  |  |  |  |  |  |  | 1.04 | 1.01 | 0.678 | 0.718 | 0.626 |  |  |  |  | 
3 | A549 | 1.42 | 1.25 |  | 1.12 | 0.528 | 0.79 | 0.601 | 0.458 |  | 0.291 |  |  |  |  |  | 0.614 | 0.547 | 0.468 | 0.391 | 0.365
4 | NCI-H358 |  |  |  |  |  | 0.781 | 0.841 | 0.372 | 0.236 | 0.22 | 0.659 | 0.538 | 0.282 | 0.148 | 0.106 |  |  | 0.264 | 0.26 | 0.205
5 | LCLC-103H |  |  |  |  |  | 1 | 1 | 0.711 | 0.966 | 0.629 |  | 0.822 | 0.72 | 0.796 | 0.775 | 1.21 | 0.975 |  | 0.961 | 0.814
6 | NCI-H1650 | 1.26 | 1.35 | 1.1 | 1.07 | 1.06 |  |  |  |  |  | 0.381 | 0.615 | 0.49 | 0.419 | 0.447 |  |  |  |  | 
7 | Calu-6 | 0.833 | 0.899 | 0.975 | 0.734 | 0.523 | 0.992 | 1.05 | 1.01 | 0.835 | 0.451 |  |  |  |  |  | 1.03 | 1.08 | 1.02 | 0.899 | 0.824
